Data from paper PMC5564600 (Oncotarget, 2017).

Key:
Assay in all cases: biochemical
Assay type in all cases: binding
panel of 442 kinases [1] = biological target: T1, panel of 442 kinases (Homo sapiens, UniProt P00533, L861Q); conditions: EGFR(L861Q); for remaining activity at 1 µM: read-out: % of control at 1 µM
T1 construct: purchased Ambit Biosciences (scanMAXX KINOMEscan)

panel of 442 kinases [2] = biological target: T2, panel of 442 kinases (Homo sapiens, UniProt Q15835); conditions: kinase GRK1; for remaining activity at 1 µM: read-out: % of control at 1 µM
T2 construct: purchased Ambit Biosciences (scanMAXX KINOMEscan)
T2 sequence (Q15835 1-563): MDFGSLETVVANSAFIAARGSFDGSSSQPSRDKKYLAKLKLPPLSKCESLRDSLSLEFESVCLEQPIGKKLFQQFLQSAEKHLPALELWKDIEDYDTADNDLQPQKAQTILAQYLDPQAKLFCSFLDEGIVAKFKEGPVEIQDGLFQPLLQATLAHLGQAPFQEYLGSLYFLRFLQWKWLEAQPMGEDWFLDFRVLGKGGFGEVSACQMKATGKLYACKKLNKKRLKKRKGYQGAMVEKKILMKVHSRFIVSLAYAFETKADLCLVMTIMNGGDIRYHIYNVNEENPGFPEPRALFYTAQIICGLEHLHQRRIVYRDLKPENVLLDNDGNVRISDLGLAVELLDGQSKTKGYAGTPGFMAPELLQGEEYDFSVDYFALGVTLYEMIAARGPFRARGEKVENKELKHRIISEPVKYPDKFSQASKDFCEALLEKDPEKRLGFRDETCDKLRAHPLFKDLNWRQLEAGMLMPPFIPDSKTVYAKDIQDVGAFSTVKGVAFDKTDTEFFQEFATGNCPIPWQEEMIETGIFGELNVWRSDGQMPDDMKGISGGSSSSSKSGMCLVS

panel of 442 kinases [3] = biological target: T3, panel of 442 kinases (Homo sapiens, UniProt Q96L34); conditions: kinase MARK4; for remaining activity at 1 µM: read-out: % of control at 1 µM
T3 construct: purchased Ambit Biosciences (scanMAXX KINOMEscan)
T3 sequence (Q96L34 1-752): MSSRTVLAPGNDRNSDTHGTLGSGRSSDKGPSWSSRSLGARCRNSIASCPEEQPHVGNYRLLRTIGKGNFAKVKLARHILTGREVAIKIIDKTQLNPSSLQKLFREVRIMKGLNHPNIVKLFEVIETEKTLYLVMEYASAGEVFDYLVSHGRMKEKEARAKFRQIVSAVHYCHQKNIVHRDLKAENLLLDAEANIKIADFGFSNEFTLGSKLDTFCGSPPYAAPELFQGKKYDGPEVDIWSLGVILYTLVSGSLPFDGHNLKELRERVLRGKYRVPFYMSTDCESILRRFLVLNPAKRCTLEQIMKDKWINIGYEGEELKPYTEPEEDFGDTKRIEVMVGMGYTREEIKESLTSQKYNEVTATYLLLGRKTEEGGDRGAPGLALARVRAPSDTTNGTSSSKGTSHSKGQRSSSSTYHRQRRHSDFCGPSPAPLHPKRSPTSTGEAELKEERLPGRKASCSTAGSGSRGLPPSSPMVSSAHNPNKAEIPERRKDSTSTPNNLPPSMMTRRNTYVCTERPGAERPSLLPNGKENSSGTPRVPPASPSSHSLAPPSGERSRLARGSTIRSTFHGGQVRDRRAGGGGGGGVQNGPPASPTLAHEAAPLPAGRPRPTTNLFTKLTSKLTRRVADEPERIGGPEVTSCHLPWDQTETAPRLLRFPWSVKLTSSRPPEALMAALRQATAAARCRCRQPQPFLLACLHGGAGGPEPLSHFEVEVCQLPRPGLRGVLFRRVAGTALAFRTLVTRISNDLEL

panel of 442 kinases [4] = biological target: T4, panel of 442 kinases (Homo sapiens, UniProt P31152); conditions: ERK4; for remaining activity at 1 µM: read-out: % of control at 1 µM
T4 construct: purchased Ambit Biosciences (scanMAXX KINOMEscan)

panel of 442 kinases [5] = biological target: T5, panel of 442 kinases (Homo sapiens, UniProt O15197); conditions: EPHB6; for remaining activity at 1 µM: read-out: % of control at 1 µM
T5 construct: purchased Ambit Biosciences (scanMAXX KINOMEscan)
T5 sequence (O15197 32-1021): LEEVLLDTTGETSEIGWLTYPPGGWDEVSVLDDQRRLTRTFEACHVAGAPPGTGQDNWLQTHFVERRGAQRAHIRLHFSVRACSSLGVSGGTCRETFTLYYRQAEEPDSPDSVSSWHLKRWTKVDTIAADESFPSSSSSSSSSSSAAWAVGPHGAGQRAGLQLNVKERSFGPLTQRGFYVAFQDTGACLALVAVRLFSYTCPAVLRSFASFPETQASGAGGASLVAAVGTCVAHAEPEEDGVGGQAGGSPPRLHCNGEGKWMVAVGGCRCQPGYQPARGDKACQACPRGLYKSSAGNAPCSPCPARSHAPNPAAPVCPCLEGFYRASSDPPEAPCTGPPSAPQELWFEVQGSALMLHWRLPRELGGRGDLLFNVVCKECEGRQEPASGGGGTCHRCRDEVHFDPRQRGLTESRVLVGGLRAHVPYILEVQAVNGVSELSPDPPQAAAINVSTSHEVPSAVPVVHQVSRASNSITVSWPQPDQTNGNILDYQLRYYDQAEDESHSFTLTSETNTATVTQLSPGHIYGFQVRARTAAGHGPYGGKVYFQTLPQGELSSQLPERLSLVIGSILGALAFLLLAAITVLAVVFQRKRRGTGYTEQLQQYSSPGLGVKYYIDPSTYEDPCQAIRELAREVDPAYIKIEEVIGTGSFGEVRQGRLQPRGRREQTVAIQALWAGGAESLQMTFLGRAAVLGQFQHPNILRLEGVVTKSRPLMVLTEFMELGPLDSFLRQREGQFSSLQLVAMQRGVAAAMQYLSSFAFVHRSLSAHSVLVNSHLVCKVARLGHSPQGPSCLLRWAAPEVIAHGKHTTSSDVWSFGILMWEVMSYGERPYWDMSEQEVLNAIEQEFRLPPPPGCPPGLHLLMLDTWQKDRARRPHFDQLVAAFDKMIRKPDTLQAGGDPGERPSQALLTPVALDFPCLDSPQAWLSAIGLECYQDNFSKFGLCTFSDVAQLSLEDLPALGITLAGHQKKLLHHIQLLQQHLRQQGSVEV

panel of 442 kinases [6] = biological target: T6, panel of 442 kinases (Homo sapiens, UniProt P00533, G719C); conditions: EGFR(G719C); for remaining activity at 1 µM: read-out: % of control at 1 µM
T6 construct: purchased Ambit Biosciences (scanMAXX KINOMEscan)

[7] = 10 µM, read-out: % of control at 10 µM

T4 sequence (P31152 whole entry): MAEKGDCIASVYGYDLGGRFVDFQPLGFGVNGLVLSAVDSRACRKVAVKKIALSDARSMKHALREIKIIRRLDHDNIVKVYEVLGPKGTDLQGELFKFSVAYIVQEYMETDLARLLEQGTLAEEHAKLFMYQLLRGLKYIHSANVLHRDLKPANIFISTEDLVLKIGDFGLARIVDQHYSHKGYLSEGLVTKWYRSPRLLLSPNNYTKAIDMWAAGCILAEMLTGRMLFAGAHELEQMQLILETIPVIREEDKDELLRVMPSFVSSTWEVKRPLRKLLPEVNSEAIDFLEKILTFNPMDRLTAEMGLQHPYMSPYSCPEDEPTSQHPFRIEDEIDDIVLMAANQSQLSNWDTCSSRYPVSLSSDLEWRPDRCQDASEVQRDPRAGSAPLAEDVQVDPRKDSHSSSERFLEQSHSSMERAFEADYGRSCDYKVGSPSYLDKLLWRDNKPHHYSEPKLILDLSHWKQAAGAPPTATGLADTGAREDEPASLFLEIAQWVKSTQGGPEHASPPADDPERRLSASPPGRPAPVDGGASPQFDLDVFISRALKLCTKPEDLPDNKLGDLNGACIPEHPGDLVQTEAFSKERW
T1 sequence (P00533 25-1210 L861Q): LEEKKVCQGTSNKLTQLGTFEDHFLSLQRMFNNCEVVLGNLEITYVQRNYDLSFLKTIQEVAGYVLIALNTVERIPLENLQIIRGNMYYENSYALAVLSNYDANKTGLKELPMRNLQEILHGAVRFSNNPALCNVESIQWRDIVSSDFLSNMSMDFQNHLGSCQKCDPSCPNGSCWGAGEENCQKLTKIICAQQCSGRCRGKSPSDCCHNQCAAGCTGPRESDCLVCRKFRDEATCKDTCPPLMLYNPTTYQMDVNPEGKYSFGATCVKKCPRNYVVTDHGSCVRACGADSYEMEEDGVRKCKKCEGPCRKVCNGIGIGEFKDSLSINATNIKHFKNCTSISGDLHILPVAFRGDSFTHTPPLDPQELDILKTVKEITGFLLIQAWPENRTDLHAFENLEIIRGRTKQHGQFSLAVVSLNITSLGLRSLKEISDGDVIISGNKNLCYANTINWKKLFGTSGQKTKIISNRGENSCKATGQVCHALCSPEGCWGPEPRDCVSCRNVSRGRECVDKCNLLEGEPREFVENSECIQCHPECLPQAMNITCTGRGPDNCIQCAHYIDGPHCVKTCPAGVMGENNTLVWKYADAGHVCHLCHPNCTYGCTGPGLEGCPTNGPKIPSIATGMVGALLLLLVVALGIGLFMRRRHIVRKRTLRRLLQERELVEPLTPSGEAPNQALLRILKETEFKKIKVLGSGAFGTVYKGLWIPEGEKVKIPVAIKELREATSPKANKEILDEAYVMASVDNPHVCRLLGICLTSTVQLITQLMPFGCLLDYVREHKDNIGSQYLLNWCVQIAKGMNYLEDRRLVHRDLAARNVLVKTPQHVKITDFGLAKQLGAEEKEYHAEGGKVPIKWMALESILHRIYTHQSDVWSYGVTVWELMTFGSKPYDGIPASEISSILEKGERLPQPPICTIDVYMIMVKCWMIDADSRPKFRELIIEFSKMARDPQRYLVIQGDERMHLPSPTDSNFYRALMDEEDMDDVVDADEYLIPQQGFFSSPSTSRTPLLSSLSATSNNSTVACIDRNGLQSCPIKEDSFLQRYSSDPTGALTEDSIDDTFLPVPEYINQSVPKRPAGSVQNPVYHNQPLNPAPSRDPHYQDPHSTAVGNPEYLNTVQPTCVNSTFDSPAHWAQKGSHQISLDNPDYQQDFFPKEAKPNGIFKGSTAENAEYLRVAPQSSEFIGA
T6 sequence (P00533 25-1210 G719C): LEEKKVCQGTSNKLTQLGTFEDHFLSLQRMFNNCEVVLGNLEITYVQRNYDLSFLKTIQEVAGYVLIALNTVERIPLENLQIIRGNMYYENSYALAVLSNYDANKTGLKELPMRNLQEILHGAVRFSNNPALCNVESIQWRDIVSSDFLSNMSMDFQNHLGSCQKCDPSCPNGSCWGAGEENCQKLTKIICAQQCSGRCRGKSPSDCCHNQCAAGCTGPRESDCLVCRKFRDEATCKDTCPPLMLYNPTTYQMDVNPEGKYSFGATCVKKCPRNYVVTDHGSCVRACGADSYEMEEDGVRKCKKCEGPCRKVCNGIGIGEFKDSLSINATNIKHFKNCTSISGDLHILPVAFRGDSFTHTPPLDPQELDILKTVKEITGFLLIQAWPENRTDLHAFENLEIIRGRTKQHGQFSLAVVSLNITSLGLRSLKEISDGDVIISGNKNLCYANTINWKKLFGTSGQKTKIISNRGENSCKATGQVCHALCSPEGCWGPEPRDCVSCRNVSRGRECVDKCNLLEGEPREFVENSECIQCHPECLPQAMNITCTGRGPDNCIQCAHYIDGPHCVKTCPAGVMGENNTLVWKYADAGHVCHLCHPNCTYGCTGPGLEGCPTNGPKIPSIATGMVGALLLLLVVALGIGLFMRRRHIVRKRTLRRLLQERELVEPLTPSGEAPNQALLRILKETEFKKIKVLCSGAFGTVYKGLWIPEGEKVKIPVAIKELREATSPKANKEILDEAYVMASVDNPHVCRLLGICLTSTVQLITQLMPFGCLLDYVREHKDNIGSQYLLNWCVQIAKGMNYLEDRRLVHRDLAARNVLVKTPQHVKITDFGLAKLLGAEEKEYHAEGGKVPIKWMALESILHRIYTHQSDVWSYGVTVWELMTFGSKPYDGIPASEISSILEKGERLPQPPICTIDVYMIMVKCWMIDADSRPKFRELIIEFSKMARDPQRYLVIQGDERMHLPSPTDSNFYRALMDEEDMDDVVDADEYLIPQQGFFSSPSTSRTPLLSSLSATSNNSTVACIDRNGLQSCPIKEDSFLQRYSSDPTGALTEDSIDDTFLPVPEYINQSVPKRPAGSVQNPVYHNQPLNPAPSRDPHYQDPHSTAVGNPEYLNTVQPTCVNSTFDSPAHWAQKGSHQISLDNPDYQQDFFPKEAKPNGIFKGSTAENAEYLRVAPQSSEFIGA

## Nc1cc(C(F)(F)F)c(-c2cc(N3CCOCC3)nc(N3CCOCC3)n2)cn1 [Buparlisib]
Panel of 442 kinases [1]
  remaining activity at 1 µM: 88%
Panel of 442 kinases [1]; [7]
  remaining activity at 10 µM: 83%
Panel of 442 kinases [2]
  remaining activity at 1 µM: 100%
Panel of 442 kinases [2]; [7]
  remaining activity at 10 µM: 100%
Panel of 442 kinases [3]
  remaining activity at 1 µM: 100%
Panel of 442 kinases [3]; [7]
  remaining activity at 10 µM: 91%
Panel of 442 kinases [4]
  remaining activity at 1 µM: 100%
Panel of 442 kinases [4]; [7]
  remaining activity at 10 µM: 100%
Panel of 442 kinases [5]
  remaining activity at 1 µM: 76%
Panel of 442 kinases [5]; [7]
  remaining activity at 10 µM: 89%
Panel of 442 kinases [6]
  remaining activity at 1 µM: 84%
Panel of 442 kinases [6]; [7]
  remaining activity at 10 µM: 83%

## Cn1c(=O)n(-c2ccc(C(C)(C)C#N)cc2)c2c3cc(-c4cnc5ccccc5c4)ccc3ncc21 [Dactolisib, 2-methyl-2-[4-(3-methyl-2-oxo-8-quinolin-3-yl-2,3-dihydroimidazo[4,5-c]quinolin-1-yl)-phenyl] propionitrile]
Panel of 442 kinases [2]
  remaining activity at 1 µM: 100%
Panel of 442 kinases [3]
  remaining activity at 1 µM: 61%
Panel of 442 kinases [4]
  remaining activity at 1 µM: 100%
Panel of 442 kinases [5]
  remaining activity at 1 µM: 100%

## COc1ncc(-c2ccc3nccc(-c4ccnnc4)c3c2)cc1NS(=O)(=O)c1ccc(F)cc1F [Omipalisib]
Panel of 442 kinases [1]
  remaining activity at 1 µM: 100%
Panel of 442 kinases [2]
  remaining activity at 1 µM: 81%
Panel of 442 kinases [3]
  remaining activity at 1 µM: 83%
Panel of 442 kinases [4]
  remaining activity at 1 µM: 100%
Panel of 442 kinases [5]
  remaining activity at 1 µM: 57%
Panel of 442 kinases [6]
  remaining activity at 1 µM: 100%

## FC(F)c1nc2ccccc2n1-c1nc(N2CCOCC2)nc(N2CCOCC2)n1 [ZSTK474, 2-(difluoromethyl)-1-[4,6-di(4-morpholinyl)-1,3,5-triazin-2-yl]-1H-benzimidazole]
Panel of 442 kinases [1]
  remaining activity at 1 µM: 100%
Panel of 442 kinases [2]
  remaining activity at 1 µM: 100%
Panel of 442 kinases [3]
  remaining activity at 1 µM: 100%
Panel of 442 kinases [4]
  remaining activity at 1 µM: 85%
Panel of 442 kinases [5]
  remaining activity at 1 µM: 100%
Panel of 442 kinases [6]
  remaining activity at 1 µM: 97%
